According to patent US11753489B2, “Nanoparticles using anionic polymer, preparation method and composition thereof” (IMGT CO, LTD., priority 2020, dated 2023):
Structures can show the parent of a compound that is named as a salt.

Tested on: Huh7 liver cancer cells
Experiment: in vitro cytotoxicity evaluation (viability analysis)
Type: cell-based
Settings: FIG. 7
Method: Viability analysis was performed on Huh7 liver cancer cells to evaluate the toxicity of the prepared nanoparticles. Three groups were evaluated: doxorubicin hydrochloride (dox), particles loaded with doxorubicin (032d), and particles not loaded with doxorubicin (032).

COc1cccc2c1C(=O)c1c(O)c3c(c(O)c1C2=O)C[C@@](O)(C(=O)CO)C[C@@H]3O[C@H]1C[C@H](N)[C@H](O)[C@H](C)O1 [doxorubicin hydrochloride]
cell viability / cancer cell killing effect: cancer cell killing effect in a concentration-dependent manner
